# Laboratory results reported in article PMC9569971, “New Oxazolo[5,4-d]pyrimidines as Potential Anticancer Agents: Their Design, Synthesis, and In Vitro Biological Activity Research” (International Journal of Molecular Sciences, 2022).
# Key:
# [1] = system: breast adenocarcinoma (MCF7); test: MTT viability assay, MCF7; type: cell-based, human; conditions: Homo sapiens; MCF7, MTT, tested 1–500 µM
# [2] = system: lung adenocarcinoma (A549); test: MTT viability assay, A549; type: cell-based, human
# Caspase-3 = test: Human Caspase-3 (Active) ELISA Kit, HT29 lysate; type: cell-based; conditions: lysate of HT29 cells treated with 3g; SD ±3.03
# Protocol: The test was performed on an HT29 colon adenocarcinoma cell line lysate treated with compound 3g. Cells from the HT29 line were harvested by centrifugation (non-adherent cells) and scraping from the culture flasks (adherent cells), and then the cells were washed twice with cold PBS. The supernatant was removed and discarded, and cell pellets were collected. The cell pellets were then lysed in a cell extraction container for 30 min on ice and […]. The lysate was transferred to microcentrifuge tubes and centrifuged at 13,000 rpm for 10 min at 4 °C. The supernatant was transferred to clean microcentrifuge tubes. Caspase-3 standard (active) was prepared from recombinant protein. The caspase-3 standard was reconstituted with the standard solvent solution at a concentration of 2.5 ng/mL. The contents were swirled and then left for 10 min to ensure complete dissolution. […]
# In this method, a monoclonal capture antibody specific to caspase-3 (cleaved) was coated onto the wells of a 96-well plate. […] The absorbance at 450 nm was read for […] after the stop solution was added. […] Concentrations for unknown samples and controls were read from the standard curve. The intensity of the colored product was directly proportional to the concentration of the target protein present in the original specimen, and the optical density was read on a microplate reader. […]
# [3] = MTT viability assay, L929; type: cell-based, murine; conditions: mouse, L929 fibroblasts, tested 1–500 µM
smiles,measurement,setting,value
"Cc1noc(N)c1-c1nc2c(NCCCN(C)C)ncnc2o1 [Compound 3g, 2-(5-Amino-3-methylisoxazol-4-yl)-7-N-[3-(N,N-dimethylamino)propyl]aminooxazolo[5,4-d]pyrimidine]",CC50,[1],209 ± 9.67 µM
same,SI (selectivity index),[2]; CC50 NHDF / CC50 A549,1.123
same,CC50,"[2]; Homo sapiens, A549, MTT, tested 1–500 µM",138 ± 12.9 µM
same,Caspase-3 concentration,Caspase-3,12.27 [ng/mL]
same,CC50,[3],83.7 ± 4.42 µM
